Laboratory results from patent US20080207560A1, “Composition For External Use” (priority 2005, published 2008).

Test: Solubility in phosphate buffer (statement)
Format: physicochemical

Compound: CC1=C(/C=C/C(C)=C/C=C/C(C)=C/C(=O)Oc2cc(C)c3c(c2)CC[C@@](C)(CCC[C@H](C)CCC[C@H](C)CCCC(C)C)O3)C(C)(C)CCC1 [d-δ-tocopheryl retinoate]
- solubility in phosphate buffer: sparingly soluble
